Legend:
[1] = molecular target: T1, DLK (Homo sapiens, UniProt Q12852); assay: KINOMEscan; type: binding; details: read-out: %Ctrl @ 10000nM
T1 construct: purchased DiscoverX KINOMEscan

[2] = molecular target: T2, LRRK2(G2019S) (Homo sapiens, UniProt Q5S007, G2019S); assay: KINOMEscan; type: binding; details: read-out: %Ctrl @ 10000nM
T2 construct: purchased DiscoverX KINOMEscan

[3] = molecular target: T3, PIP5K2C (Homo sapiens, UniProt Q8TBX8); assay: KINOMEscan; type: binding; details: read-out: %Ctrl @ 10000nM
T3 construct: purchased DiscoverX KINOMEscan
T3 sequence (Q8TBX8 whole entry): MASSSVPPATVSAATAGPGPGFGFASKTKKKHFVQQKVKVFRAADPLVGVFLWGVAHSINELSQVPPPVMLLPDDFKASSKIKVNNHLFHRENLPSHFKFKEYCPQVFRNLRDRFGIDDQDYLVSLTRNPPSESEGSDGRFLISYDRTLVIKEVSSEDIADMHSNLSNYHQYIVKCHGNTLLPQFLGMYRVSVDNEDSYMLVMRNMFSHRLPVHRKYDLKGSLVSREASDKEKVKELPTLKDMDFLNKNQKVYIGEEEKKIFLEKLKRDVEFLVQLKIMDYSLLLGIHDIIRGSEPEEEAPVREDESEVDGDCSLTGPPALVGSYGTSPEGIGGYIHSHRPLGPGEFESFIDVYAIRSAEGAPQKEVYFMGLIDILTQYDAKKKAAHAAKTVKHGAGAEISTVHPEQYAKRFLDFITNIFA

[4] = molecular target: T4, NEK6 (Homo sapiens, UniProt Q9HC98); assay: KINOMEscan; type: binding; details: read-out: %Ctrl @ 10000nM
T4 construct: purchased DiscoverX KINOMEscan

[5] = molecular target: T5, ERBB3 (Homo sapiens, UniProt P21860); assay: KINOMEscan; type: binding; details: read-out: %Ctrl @ 10000nM
T5 construct: purchased DiscoverX KINOMEscan

[6] = molecular target: T6, STK33 (Homo sapiens, UniProt Q9BYT3); assay: KINOMEscan; type: binding; details: read-out: %Ctrl @ 10000nM
T6 construct: purchased DiscoverX KINOMEscan
T6 sequence (Q9BYT3 whole entry): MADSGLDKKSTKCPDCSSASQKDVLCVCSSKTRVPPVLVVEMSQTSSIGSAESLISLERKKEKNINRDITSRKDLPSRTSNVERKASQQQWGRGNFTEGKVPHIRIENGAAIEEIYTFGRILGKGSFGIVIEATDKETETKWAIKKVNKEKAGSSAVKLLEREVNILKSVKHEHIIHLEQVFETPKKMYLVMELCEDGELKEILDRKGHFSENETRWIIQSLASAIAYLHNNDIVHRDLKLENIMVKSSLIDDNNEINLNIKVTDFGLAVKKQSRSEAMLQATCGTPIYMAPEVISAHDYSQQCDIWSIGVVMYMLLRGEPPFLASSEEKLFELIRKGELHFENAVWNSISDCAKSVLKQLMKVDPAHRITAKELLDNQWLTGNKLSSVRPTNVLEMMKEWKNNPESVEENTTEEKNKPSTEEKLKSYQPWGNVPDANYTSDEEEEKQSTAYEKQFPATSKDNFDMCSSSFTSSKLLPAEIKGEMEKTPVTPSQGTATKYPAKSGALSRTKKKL

[7] = molecular target: T7, ACVR1B (Homo sapiens, UniProt P36896); assay: KINOMEscan; type: binding; details: read-out: %Ctrl @ 10000nM
T7 construct: purchased DiscoverX KINOMEscan

[8] = molecular target: T8, ERBB2 (Homo sapiens, UniProt P04626); assay: KINOMEscan; type: binding; details: read-out: %Ctrl @ 10000nM
T8 construct: purchased DiscoverX KINOMEscan

[9] = molecular target: T9, TAK1 (Homo sapiens, UniProt O43318); assay: KINOMEscan; type: binding; details: read-out: %Ctrl @ 10000nM
T9 construct: purchased DiscoverX KINOMEscan
T9 sequence (O43318 whole entry): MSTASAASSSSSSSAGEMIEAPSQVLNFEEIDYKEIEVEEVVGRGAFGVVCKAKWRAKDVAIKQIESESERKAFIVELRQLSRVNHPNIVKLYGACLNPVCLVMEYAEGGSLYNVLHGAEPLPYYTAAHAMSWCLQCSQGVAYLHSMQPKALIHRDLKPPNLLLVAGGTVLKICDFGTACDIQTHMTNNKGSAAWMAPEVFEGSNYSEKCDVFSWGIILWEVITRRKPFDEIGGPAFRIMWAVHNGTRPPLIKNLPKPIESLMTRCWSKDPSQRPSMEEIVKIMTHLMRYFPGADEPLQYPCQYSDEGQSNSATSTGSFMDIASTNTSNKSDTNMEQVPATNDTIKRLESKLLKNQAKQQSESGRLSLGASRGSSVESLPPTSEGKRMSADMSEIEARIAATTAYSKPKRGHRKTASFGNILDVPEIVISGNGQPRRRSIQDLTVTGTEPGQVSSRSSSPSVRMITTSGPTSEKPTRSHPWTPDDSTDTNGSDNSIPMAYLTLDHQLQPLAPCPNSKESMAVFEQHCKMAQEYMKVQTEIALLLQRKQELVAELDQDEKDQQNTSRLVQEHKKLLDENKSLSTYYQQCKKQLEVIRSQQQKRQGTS

[10] = molecular target: T10, EGFR(L747-S752del, P753S) (Homo sapiens, UniProt P00533, DEL747-752/P753S); assay: KINOMEscan; type: binding; details: read-out: %Ctrl @ 10000nM
T10 construct: purchased DiscoverX KINOMEscan

[11] = molecular target: T11, ABL1(F317I)-nonphosphorylated (Homo sapiens, UniProt P00519, F317I); assay: KINOMEscan; type: binding; details: read-out: %Ctrl @ 10000nM
T11 construct: purchased DiscoverX KINOMEscan

[12] = molecular target: T12, RPS6KA4(Kin.Dom.2-C-terminal) (Homo sapiens, UniProt O75676); assay: KINOMEscan; type: binding; details: read-out: %Ctrl @ 10000nM
T12 construct: RPS6KA4(Kin.Dom.2-C-terminal); purchased DiscoverX KINOMEscan

[13] = molecular target: T13, MKNK1 (Homo sapiens, UniProt Q9BUB5); assay: KINOMEscan; type: binding; details: read-out: %Ctrl @ 10000nM
T13 construct: purchased DiscoverX KINOMEscan

[14] = molecular target: T14, PRKCE (Homo sapiens, UniProt Q02156); assay: KINOMEscan; type: binding; details: read-out: %Ctrl @ 10000nM
T14 construct: purchased DiscoverX KINOMEscan
T14 sequence (Q02156 whole entry): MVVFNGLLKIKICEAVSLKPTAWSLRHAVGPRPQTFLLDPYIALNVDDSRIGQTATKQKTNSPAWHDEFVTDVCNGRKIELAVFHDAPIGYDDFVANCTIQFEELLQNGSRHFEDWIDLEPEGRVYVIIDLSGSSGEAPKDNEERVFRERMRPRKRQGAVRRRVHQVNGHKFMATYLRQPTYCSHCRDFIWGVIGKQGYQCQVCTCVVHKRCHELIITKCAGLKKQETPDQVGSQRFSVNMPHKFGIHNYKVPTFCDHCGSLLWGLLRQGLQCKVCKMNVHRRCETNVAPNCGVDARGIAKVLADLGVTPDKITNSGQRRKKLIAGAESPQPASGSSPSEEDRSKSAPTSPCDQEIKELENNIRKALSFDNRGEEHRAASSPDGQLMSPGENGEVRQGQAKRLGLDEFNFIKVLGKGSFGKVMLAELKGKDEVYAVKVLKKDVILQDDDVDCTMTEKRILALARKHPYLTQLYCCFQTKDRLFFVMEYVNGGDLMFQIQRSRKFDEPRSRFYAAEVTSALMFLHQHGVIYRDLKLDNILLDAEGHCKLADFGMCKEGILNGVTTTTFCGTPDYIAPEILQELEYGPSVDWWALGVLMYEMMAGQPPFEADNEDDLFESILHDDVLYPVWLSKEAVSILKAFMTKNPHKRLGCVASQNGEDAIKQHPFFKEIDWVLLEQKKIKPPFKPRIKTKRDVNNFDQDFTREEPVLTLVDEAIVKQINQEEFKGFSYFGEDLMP

[15] = molecular target: T15, ANKK1 (Homo sapiens, UniProt Q8NFD2); assay: KINOMEscan; type: binding; details: read-out: %Ctrl @ 10000nM
T15 construct: purchased DiscoverX KINOMEscan

[16] = molecular target: T16, PFTAIRE2 (Homo sapiens, UniProt Q96Q40); assay: KINOMEscan; type: binding; details: read-out: %Ctrl @ 10000nM
T16 construct: purchased DiscoverX KINOMEscan

[17] = molecular target: T17, PRKCD (Homo sapiens, UniProt Q05655); assay: KINOMEscan; type: binding; details: read-out: %Ctrl @ 10000nM
T17 construct: purchased DiscoverX KINOMEscan

[18] = molecular target: T18, DDR1 (Homo sapiens, UniProt Q08345); assay: KINOMEscan; type: binding; details: read-out: %Ctrl @ 10000nM
T18 construct: purchased DiscoverX KINOMEscan
T18 sequence (Q08345 19-913): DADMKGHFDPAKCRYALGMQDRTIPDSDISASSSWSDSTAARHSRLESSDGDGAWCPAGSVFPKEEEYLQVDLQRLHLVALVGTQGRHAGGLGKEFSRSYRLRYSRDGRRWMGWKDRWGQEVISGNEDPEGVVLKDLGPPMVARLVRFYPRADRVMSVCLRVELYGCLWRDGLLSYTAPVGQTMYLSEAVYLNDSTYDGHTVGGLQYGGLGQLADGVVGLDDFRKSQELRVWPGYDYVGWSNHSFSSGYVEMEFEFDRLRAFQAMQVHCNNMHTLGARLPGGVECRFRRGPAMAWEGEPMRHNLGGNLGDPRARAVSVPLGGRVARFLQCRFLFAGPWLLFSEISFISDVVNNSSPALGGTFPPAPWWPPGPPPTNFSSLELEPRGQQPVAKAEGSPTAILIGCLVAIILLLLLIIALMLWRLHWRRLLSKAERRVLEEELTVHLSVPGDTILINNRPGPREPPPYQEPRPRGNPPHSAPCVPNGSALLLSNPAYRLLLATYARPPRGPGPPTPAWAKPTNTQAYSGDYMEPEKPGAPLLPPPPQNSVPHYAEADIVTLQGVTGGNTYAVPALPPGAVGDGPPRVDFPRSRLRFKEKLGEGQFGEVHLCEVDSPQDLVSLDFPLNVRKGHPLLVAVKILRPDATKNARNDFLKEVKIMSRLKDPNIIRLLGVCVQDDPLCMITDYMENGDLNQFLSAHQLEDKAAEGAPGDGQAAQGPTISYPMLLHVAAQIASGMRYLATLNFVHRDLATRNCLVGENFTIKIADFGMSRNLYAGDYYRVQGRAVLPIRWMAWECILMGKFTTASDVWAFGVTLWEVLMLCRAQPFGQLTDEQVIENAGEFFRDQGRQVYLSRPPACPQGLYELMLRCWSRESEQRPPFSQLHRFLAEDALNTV

[19] = molecular target: T19, HIPK4 (Homo sapiens, UniProt Q8NE63); assay: KINOMEscan; type: binding; details: read-out: %Ctrl @ 10000nM
T19 construct: purchased DiscoverX KINOMEscan
T19 sequence (Q8NE63 whole entry): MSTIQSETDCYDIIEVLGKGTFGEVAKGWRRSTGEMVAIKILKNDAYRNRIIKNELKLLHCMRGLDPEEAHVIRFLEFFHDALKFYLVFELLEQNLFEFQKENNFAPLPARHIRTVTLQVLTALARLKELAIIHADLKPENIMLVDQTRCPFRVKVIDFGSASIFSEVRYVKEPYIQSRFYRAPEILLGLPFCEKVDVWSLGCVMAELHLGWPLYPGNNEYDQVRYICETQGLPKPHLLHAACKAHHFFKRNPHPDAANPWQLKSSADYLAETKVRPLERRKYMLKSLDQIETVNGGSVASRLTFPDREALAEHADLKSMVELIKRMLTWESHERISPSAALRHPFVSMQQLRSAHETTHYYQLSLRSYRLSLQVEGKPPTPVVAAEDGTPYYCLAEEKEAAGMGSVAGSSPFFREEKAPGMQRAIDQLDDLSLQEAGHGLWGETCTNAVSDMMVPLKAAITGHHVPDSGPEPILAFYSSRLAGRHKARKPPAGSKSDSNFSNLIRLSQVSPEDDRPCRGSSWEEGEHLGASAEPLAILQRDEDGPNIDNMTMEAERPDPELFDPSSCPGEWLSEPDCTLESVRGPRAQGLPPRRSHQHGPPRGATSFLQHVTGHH

[20] = molecular target: T20, IKK-beta (Homo sapiens, UniProt O14920); assay: KINOMEscan; type: binding; details: read-out: %Ctrl @ 10000nM
T20 construct: purchased DiscoverX KINOMEscan

[21] = molecular target: T21, FLT3(K663Q) (Homo sapiens, UniProt P36888, K663Q); assay: KINOMEscan; type: binding; details: read-out: %Ctrl @ 10000nM
T21 construct: purchased DiscoverX KINOMEscan

[22] = molecular target: T22, FLT3 (Homo sapiens, UniProt P36888); assay: KINOMEscan; type: binding; details: read-out: %Ctrl @ 10000nM
T22 construct: purchased DiscoverX KINOMEscan

[23] = molecular target: T23, CAMK1G (Homo sapiens, UniProt Q96NX5); assay: KINOMEscan; type: binding; details: read-out: %Ctrl @ 10000nM
T23 construct: purchased DiscoverX KINOMEscan

[24] = Protein binding; details: human
[25] = molecular target: T24, PKMYT1 (Homo sapiens, UniProt Q99640); assay: KINOMEscan; type: binding; details: read-out: %Ctrl @ 10000nM
T24 construct: purchased DiscoverX KINOMEscan

[26] = molecular target: T25, AAK1 (Homo sapiens, UniProt Q2M2I8); assay: KINOMEscan; type: binding; details: read-out: %Ctrl @ 10000nM
T25 construct: purchased DiscoverX KINOMEscan

[27] = molecular target: T26, RIPK4 (Homo sapiens, UniProt P57078); assay: KINOMEscan; type: binding; details: read-out: %Ctrl @ 10000nM
T26 construct: purchased DiscoverX KINOMEscan

[28] = molecular target: T27, ABL1(M351T)-phosphorylated (Homo sapiens, UniProt P00519, M351T); assay: KINOMEscan; type: binding; details: read-out: %Ctrl @ 10000nM
T27 construct: purchased DiscoverX KINOMEscan

[29] = molecular target: T28, YSK1 (Homo sapiens, UniProt O00506); assay: KINOMEscan; type: binding; details: read-out: %Ctrl @ 10000nM
T28 construct: purchased DiscoverX scanMAX; host or cells: E. coli BL21-derived host (T7 phage) or HEK-293

[30] = molecular target: T29, CHEK1 (Homo sapiens, UniProt O14757); assay: KINOMEscan; type: binding; details: read-out: %Ctrl @ 10000nM
T29 construct: purchased DiscoverX KINOMEscan

[31] = molecular target: T30, TXK (Homo sapiens, UniProt P42681); assay: KINOMEscan; type: binding; details: read-out: %Ctrl @ 10000nM
T30 construct: DNA label for qPCR (T7 phage fusion or DNA tag); purchased DiscoverX scanMAX; host or cells: E. coli BL21-derived (T7 phage) or HEK-293

[32] = molecular target: T31, NEK1 (Homo sapiens, UniProt Q96PY6); assay: KINOMEscan; type: binding; details: read-out: %Ctrl @ 10000nM
T31 construct: purchased DiscoverX KINOMEscan
T31 sequence (Q96PY6 whole entry): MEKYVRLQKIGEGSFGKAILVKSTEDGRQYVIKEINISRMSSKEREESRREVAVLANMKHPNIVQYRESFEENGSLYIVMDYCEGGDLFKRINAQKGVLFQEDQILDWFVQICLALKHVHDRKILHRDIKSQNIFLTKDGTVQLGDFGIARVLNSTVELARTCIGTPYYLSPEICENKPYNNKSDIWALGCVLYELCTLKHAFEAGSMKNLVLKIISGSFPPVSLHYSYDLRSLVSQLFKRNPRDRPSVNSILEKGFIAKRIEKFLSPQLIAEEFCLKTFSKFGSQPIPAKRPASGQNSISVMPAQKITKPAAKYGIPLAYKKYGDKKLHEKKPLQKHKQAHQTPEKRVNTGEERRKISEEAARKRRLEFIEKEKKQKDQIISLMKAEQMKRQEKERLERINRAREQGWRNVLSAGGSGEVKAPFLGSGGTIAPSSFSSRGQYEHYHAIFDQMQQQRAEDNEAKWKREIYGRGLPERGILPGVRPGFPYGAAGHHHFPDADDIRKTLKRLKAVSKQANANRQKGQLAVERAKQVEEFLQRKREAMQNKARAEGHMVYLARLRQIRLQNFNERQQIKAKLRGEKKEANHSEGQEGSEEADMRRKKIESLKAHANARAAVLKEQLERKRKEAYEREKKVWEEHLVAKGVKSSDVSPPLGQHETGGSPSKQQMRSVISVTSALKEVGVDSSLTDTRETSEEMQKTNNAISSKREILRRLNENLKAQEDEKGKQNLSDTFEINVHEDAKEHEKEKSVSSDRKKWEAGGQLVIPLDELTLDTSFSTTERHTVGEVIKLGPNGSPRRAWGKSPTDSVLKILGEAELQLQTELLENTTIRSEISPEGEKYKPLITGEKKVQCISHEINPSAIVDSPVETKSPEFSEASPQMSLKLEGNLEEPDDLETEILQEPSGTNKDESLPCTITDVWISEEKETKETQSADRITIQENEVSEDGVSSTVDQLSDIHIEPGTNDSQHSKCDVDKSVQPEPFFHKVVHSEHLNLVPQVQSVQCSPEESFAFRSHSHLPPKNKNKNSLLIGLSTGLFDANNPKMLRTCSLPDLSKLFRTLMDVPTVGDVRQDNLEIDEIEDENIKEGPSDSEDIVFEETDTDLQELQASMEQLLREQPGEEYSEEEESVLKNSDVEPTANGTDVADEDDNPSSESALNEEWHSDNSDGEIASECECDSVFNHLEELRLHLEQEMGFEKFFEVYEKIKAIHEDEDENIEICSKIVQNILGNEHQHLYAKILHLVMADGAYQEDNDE

[33] = molecular target: T32, PRKR (Homo sapiens, UniProt P19525); assay: KINOMEscan; type: binding; details: read-out: %Ctrl @ 10000nM
T32 construct: purchased DiscoverX KINOMEscan

[34] = molecular target: T33, DCAMKL1 (Homo sapiens, UniProt O15075); assay: KINOMEscan; type: binding; details: read-out: %Ctrl @ 10000nM
T33 construct: purchased DiscoverX KINOMEscan

[35] = molecular target: T34, EIF2AK1 (Homo sapiens, UniProt Q9BQI3); assay: KINOMEscan; type: binding; details: read-out: %Ctrl @ 10000nM
T34 construct: purchased DiscoverX KINOMEscan

[36] = molecular target: T35, BRSK2 (Homo sapiens, UniProt Q8IWQ3); assay: KINOMEscan; type: binding; details: read-out: %Ctrl @ 10000nM
T35 construct: purchased DiscoverX KINOMEscan

[37] = molecular target: T36, MAP4K4 (Homo sapiens, UniProt O95819); assay: KINOMEscan; type: binding; details: read-out: %Ctrl @ 10000nM
T36 construct: purchased DiscoverX KINOMEscan

[38] = molecular target: T37, NDR2 (Homo sapiens, UniProt Q9Y2H1); assay: KINOMEscan; type: binding; details: read-out: %Ctrl @ 10000nM
T37 construct: purchased DiscoverX KINOMEscan

[39] = molecular target: T38, PIK3CA(C420R) (Homo sapiens, UniProt P42336, C420R); assay: KINOMEscan; type: binding; details: read-out: %Ctrl @ 10000nM
T38 construct: purchased DiscoverX KINOMEscan

[40] = molecular target: T39, YANK2 (Homo sapiens, UniProt Q9NY57); assay: KINOMEscan; type: binding; details: read-out: %Ctrl @ 10000nM
T39 construct: DNA label for qPCR (T7 phage fusion or DNA tag); purchased DiscoverX scanMAX; host or cells: E. coli BL21-derived (T7 phage) or HEK-293

[41] = molecular target: T40, WNK4 (Homo sapiens, UniProt Q96J92); assay: KINOMEscan; type: binding; details: read-out: %Ctrl @ 10000nM
T40 construct: DNA label for qPCR (T7 phage fusion or DNA tag); purchased DiscoverX scanMAX; host or cells: E. coli BL21-derived (T7 phage) or HEK-293

CC(C)c1ccc(CC(=O)N2CCN(c3ccc(C#N)nn3)CC2)cc1 [PZ-2891, 6-(4-(2-(4-isopropylphenyl)acetyl)piperazin-1-yl)pyridazine-3-carbonitrile]
remaining binding at 10 µM [1]: 100% | remaining binding at 10 µM [2]: 100% | remaining binding at 10 µM [3]: 85% | remaining binding at 10 µM [4]: 91% | remaining binding at 10 µM [5]: 60% | remaining binding at 10 µM [6]: 90% | remaining binding at 10 µM [7]: 97% | remaining binding at 10 µM [8]: 92% | remaining binding at 10 µM [9]: 67% | remaining binding at 10 µM [10]: 100% | remaining binding at 10 µM [11]: 77% | remaining binding at 10 µM [12]: 67% | remaining binding at 10 µM [13]: 97% | remaining binding at 10 µM [14]: 70% | remaining binding at 10 µM [15]: 78% | remaining binding at 10 µM [16]: 99% | remaining binding at 10 µM [17]: 89% | remaining binding at 10 µM [18]: 81% | remaining binding at 10 µM [19]: 94% | remaining binding at 10 µM [20]: 100% | remaining binding at 10 µM [21]: 88% | remaining binding at 10 µM [22]: 57% | remaining binding at 10 µM [23]: 83% | fraction unbound [24]: 0.07 | remaining binding at 10 µM [25]: 100% | remaining binding at 10 µM [26]: 84% | remaining binding at 10 µM [27]: 81% | remaining binding at 10 µM [28]: 96% | remaining binding at 10 µM [29]: 100% | remaining binding at 10 µM [30]: 83% | remaining binding at 10 µM [31]: 92% | remaining binding at 10 µM [32]: 100% | remaining binding at 10 µM [33]: 100% | remaining binding at 10 µM [34]: 80% | remaining binding at 10 µM [35]: 95% | remaining binding at 10 µM [36]: 81% | remaining binding at 10 µM [37]: 100% | remaining binding at 10 µM [38]: 94% | remaining binding at 10 µM [39]: 76% | remaining binding at 10 µM [40]: 100% | remaining binding at 10 µM [41]: 69%

— article PMC6199309, “A therapeutic approach to pantothenate kinase associated neurodegeneration” (Nature Communications, 2018)
